Results published in patent US20230093099A1, “COMPOUNDS AND METHODS OF TREATING CANCERS” (CULLGEN (SHANGHAI), INC., priority 2019, published 2023).

System: RS4;11 cells
Experiment: Cell viability assay (CellTiter-Glo) in RS4;11 cells
Format: cell-based
Conditions: Homo sapiens, 72 h; RS4;11 cells; cell viability, 3 days, CellTiter-Glo; read-out: IC50
Experimental: Specific exemplary heterobifunctional compounds were first characterized using cell viability assays. RS4;11 ALL cells were treated with bifunctional degraders for three days. The IC50 values ranged from 2 nM to over 10 uM.
MV4;11, RS4;11, Kasumi-1, HEL and other cells were treated with NVP-BSK805, TG101209 or selected degraders for 3 days at indicated concentrations following a 3-fold serial dilution.
HEL, RS4;11, MV4;11, Kasumi-1 and other cells were cultured at 37° C. with 5% CO2 in RPMI 1640 or DMEM Medium supplemented with 10% fetal bovine serum. Cells were authenticated using the short tandem repeat (STR) assays. Mycoplasma test results were negative.
Cells were seeded at a density of 5000 cells per well in 96-well assay plates and treated with test compounds following a 8-point or 12-point 3-fold serial dilution. Three days later, cell viability was determined using the CellTiter-Glo assay kit according to the manufacturer's instructions. The dose-response curves were determined and IC50 values were calculated using the GraphPad Prism software following a nonlinear regression (least squares fit) method.

IC50	SMILES
> 10 µM	Cc1ncsc1-c1ccc(CNC(=O)[C@@H]2C[C@@H](O)CN2C(=O)[C@@H](NC(=O)CCOCCOCCOCCOCCOCCNC(=O)CN2CCN(c3ccc(Nc4nc5cccc(-c6ccc(S(C)(=O)=O)cc6)n5n4)cc3)CC2)C(C)(C)C)cc1 [JA-138, (2S,4R)-1-((S)-23-(tert-Butyl)-1-(4-(4-((5-(4-(methylsulfonyl)phenyl)-[1,2,4]triazolo[1,5-a]pyridin-2-yl)amino)phenyl)piperazin-1-yl)-2,21-dioxo-6,9,12,15,18-pentaoxa-3,22-diazatetracosan-24-oyl)-4-hydroxy-N-(4-(4-methylthiazol-5-yl)benzyl)pyrrolidine-2-carboxamide]
> 10 µM	CS(=O)(=O)c1ccc(-c2cccc3nc(Nc4ccc(N5CCN(C(=O)CCCCCNc6cccc7c6C(=O)N(C6CCC(=O)NC6=O)C7=O)CC5)cc4)nn23)cc1 (centres unmarked) [JA-013, 2-(2,6-Dioxo-piperidin-3-yl)-4-[6-(4-{4-[5-(4-methanesulfonyl-phenyl)-[1,2,4]triazolo[1,5-a]pyridin-2-ylamino]-phenyl}-piperazin-1-yl)-6-oxo-hexylamino]-isoindole-1,3-dione]
> 10 µM	Cc1ncsc1-c1ccc(CNC(=O)[C@@H]2C[C@@H](O)CN2C(=O)[C@@H](NC(=O)COCCOCCNC(=O)CN2CCC(n3cc(-c4cnc5cccc(-c6cc(F)c(CN7CCOCC7)c(F)c6)c5n4)cn3)CC2)C(C)(C)C)cc1 [JA-163, (2S,4R)-1-((S)-2-(tert-Butyl)-14-(4-(4-(8-(3,5-difluoro-4-(morpholinomethyl)phenyl)quinoxalin-2-yl)-1H-pyrazol-1-yl)piperidin-1-yl)-4,13-dioxo-6,9-dioxa-3,12-diazatetradecanoyl)-4-hydroxy-N-(4-(4-methylthiazol-5-yl)benzyl)pyrrolidine-2-carboxamide]
0.479 µM	CS(=O)(=O)c1ccc(-c2cccc3nc(Nc4ccc(N5CCN(C(=O)CCOCCNc6cccc7c6C(=O)N(C6CCC(=O)NC6=O)C7=O)CC5)cc4)nn23)cc1 (centres unmarked) [JA-079, 2-(2,6-Dioxo-piperidin-3-yl)-4-{2-[3-(4-{4-[5-(4-methanesulfonyl-phenyl)-[1,2,4]triazolo[1,5-a]pyridin-2-ylamino]-phenyl}-piperazin-1-yl)-3-oxo-propoxy]-ethylamino}-isoindole-1,3-dione]
> 10 µM	Cc1ncsc1-c1ccc(CNC(=O)[C@@H]2C[C@@H](O)CN2C(=O)[C@@H](NC(=O)CCCC(=O)N2CCC(n3cc(-c4cnc5cccc(-c6cc(F)c(CN7CCOCC7)c(F)c6)c5n4)cn3)CC2)C(C)(C)C)cc1 [JA-046, (2S,4R)-1-[(2S)-2-[[5-[4-[4-[8-[3,5-Difluoro-4-(morpholinomethyl)phenyl]quinoxalin-2-yl]pyrazol-1-yl]-1-piperidyl]-5-oxo-pentanoyl]amino]-3,3-dimethyl-butanoyl]-4-hydroxy-N-[[4-(4-methylthiazol-5-yl)phenyl]methyl]pyrrolidine-2-carboxamide]
> 10 µM	Cc1ncsc1-c1ccc(CNC(=O)[C@@H]2C[C@@H](O)CN2C(=O)[C@@H](NC(=O)CCCC(=O)N2CCN(c3ccc(Nc4nc5cccc(-c6ccc(S(C)(=O)=O)cc6)n5n4)cc3)CC2)C(C)(C)C)cc1 [JA-066, (2S,4R)-1-((S)-3,3-Dimethyl-2-(5-(4-(4-((5-(4-(methylsulfonyl)phenyl)-[1,2,4]triazolo[1,5-a]pyridin-2-yl)amino)phenyl)piperazin-1-yl)-5-oxopentanamido)butanoyl)-4-hydroxy-N-(4-(4-methylthiazol-5-yl)benzyl)pyrrolidine-2-carboxamide]
> 10 µM	CS(=O)(=O)c1ccc(-c2cccc3nc(Nc4ccc(N5CCN(C(=O)CCOCCOCCOCCOCCOCCNc6ccc7c(c6)C(=O)N(C6CCC(=O)NC6=O)C7=O)CC5)cc4)nn23)cc1 (centres unmarked) [JA-193, 2-(2,6-Dioxopiperidin-3-yl)-5-((18-(4-(4-((5-(4-(methylsulfonyl)phenyl)-[1,2,4]triazolo[1,5-a]pyridin-2-yl)amino)phenyl)piperazin-1-yl)-18-oxo-3,6,9,12,15-pentaoxaoctadecyl)amino)isoindoline-1,3-dione]
> 10 µM	CS(=O)(=O)c1ccc(-c2cccc3nc(Nc4ccc(N5CCN(C(=O)CCCCC#Cc6ccc7c(c6)C(=O)N(C6CCC(=O)NC6=O)C7)CC5)cc4)nn23)cc1 (centres unmarked) [JA-262, 3-(6-(7-(4-(4-((5-(4-(Methylsulfonyl)phenyl)-[1,2,4]triazolo[1,5-a]pyridin-2-yl)amino)phenyl)piperazin-1-yl)-7-oxohept-1-yn-1-yl)-1-oxoisoindolin-2-yl)piperidine-2,6-dione]
> 10 µM	CS(=O)(=O)c1ccc(-c2cccc3nc(Nc4ccc(N5CCN(CC(=O)NCCCCCCCCNc6cccc7c6C(=O)N(C6CCC(=O)NC6=O)C7=O)CC5)cc4)nn23)cc1 (centres unmarked) [JA-118, N-(8-((2-(2,6-Dioxopiperidin-3-yl)-1,3-dioxoisoindolin-4-yl)amino)octyl)-2-(4-(4-((5-(4-(methylsulfonyl)phenyl)-[1,2,4]triazolo[1,5-a]pyridin-2-yl)amino)phenyl)piperazin-1-yl)acetamide]
> 10 µM	CS(=O)(=O)c1ccc(-c2cccc3nc(Nc4ccc(N5CCN(CC(=O)NCCCCNc6cccc7c6C(=O)N(C6CCC(=O)NC6=O)C7=O)CC5)cc4)nn23)cc1 (centres unmarked) [JA-109, N-(4-((2-(2,6-Dioxopiperidin-3-yl)-1,3-dioxoisoindolin-4-yl)amino)butyl)-2-(4-(4-((5-(4-(methylsulfonyl)phenyl)-[1,2,4]triazolo[1,5-a]pyridin-2-yl)amino)phenyl)piperazin-1-yl)acetamide]
> 10 µM	CS(=O)(=O)c1ccc(-c2cccc3nc(Nc4ccc(N5CCN(CC(=O)NCCCCCNc6ccc7c(c6)C(=O)N(C6CCC(=O)NC6=O)C7=O)CC5)cc4)nn23)cc1 (centres unmarked) [JA-204, N-(5-((2-(2,6-Dioxopiperidin-3-yl)-1,3-dioxoisoindolin-5-yl)amino)pentyl)-2-(4-(4-((5-(4-(methylsulfonyl)phenyl)-[1,2,4]triazolo[1,5-a]pyridin-2-yl)amino)phenyl)piperazin-1-yl)acetamide]
> 10 µM	Cc1cnc(Nc2ccc(N3CCN(CC(=O)NCCCCCCCCCC(=O)N[C@H](C(=O)N4C[C@H](O)C[C@H]4C(=O)NCc4ccc(-c5scnc5C)cc4)C(C)(C)C)CC3)cc2)nc1Nc1cccc(S(=O)(=O)NC(C)(C)C)c1 [JA-105, (2S,4R)-1-((S)-2-(10-(2-(4-(4-((4-((3-(N-(tert-Butyl)sulfamoyl)phenyl)amino)-5-methylpyrimidin-2-yl)amino)phenyl)piperazin-1-yl)acetamido)decanamido)-3,3-dimethylbutanoyl)-4-hydroxy-N-(4-(4-methylthiazol-5-yl)benzyl)pyrrolidine-2-carboxamide]
> 10 µM	Cc1cnc(Nc2ccc(N3CCN(CC(=O)NCCCCCNc4ccc5c(c4)C(=O)N(C4CCC(=O)NC4=O)C5=O)CC3)cc2)nc1Nc1cccc(S(=O)(=O)NC(C)(C)C)c1 (centres unmarked) [JA-244, 2-(4-(4-((4-((3-(N-(tert-butyl)sulfamoyl)phenyl)amino)-5-methylpyrimidin-2-yl)amino)phenyl)piperazin-1-yl)-N-(5-((2-(2,6-dioxopiperidin-3-yl)-1,3-dioxoisoindolin-5-yl)amino)pentyl)acetamide]
> 10 µM	Cc1ncsc1-c1ccc(CNC(=O)[C@@H]2C[C@@H](O)CN2C(=O)[C@@H](NC(=O)CCOCCOCCOCCOCCC(=O)N2CCC(n3cc(-c4cnc5cccc(-c6cc(F)c(CN7CCOCC7)c(F)c6)c5n4)cn3)CC2)C(C)(C)C)cc1 [JA-061, (2S,4R)-1-[(2S)-2-[3-[2-[2-[2-[3-[4-[4-[8-[3,5-Difluoro-4-(morpholinomethyl)phenyl]quinoxalin-2-yl]pyrazol-1-yl]-1-piperidyl]-3-oxo-propoxy]ethoxy]ethoxy]ethoxy]propanoylamino]-3,3-dimethyl-butanoyl]-4-hydroxy-N-[[4-(4-methylthiazol-5-yl)phenyl]methyl]pyrrolidine-2-carboxamide]
> 10 µM	CS(=O)(=O)c1ccc(-c2cccc3nc(Nc4ccc(N5CCN(C(=O)CNc6ccc7c(c6)C(=O)N(C6CCC(=O)NC6=O)C7=O)CC5)cc4)nn23)cc1 (centres unmarked) [JA-194, 2-(2,6-Dioxopiperidin-3-yl)-5-((2-(4-(4-((5-(4-(methylsulfonyl)phenyl)-[1,2,4]triazolo[1,5-a]pyridin-2-yl)amino)phenyl)piperazin-1-yl)-2-oxoethyl)amino)isoindoline-1,3-dione]
> 10 µM	O=C(CN1CCC(n2cc(-c3cnc4cccc(-c5cc(F)c(CN6CCOCC6)c(F)c5)c4n3)cn2)CC1)NCCOCCOCCOCCNc1ccc2c(c1)C(=O)N(C1CCC(=O)NC1=O)C2=O (centres unmarked) [JA-171, 2-(4-(4-(8-(3,5-Difluoro-4-(morpholinomethyl)phenyl)quinoxalin-2-yl)-1H-pyrazol-1-yl)piperidin-1-yl)-N-(2-(2-(2-(2-((2-(2,6-dioxopiperidin-3-yl)-1,3-dioxoisoindolin-5-yl)amino)ethoxy)ethoxy)ethoxy)ethyl)acetamide]
0.975 µM	Cc1cnc(Nc2ccc(N3CCN(CC(=O)NCCOCCOCCOCCOCCNc4cccc5c4C(=O)N(C4CCC(=O)NC4=O)C5=O)CC3)cc2)nc1Nc1cccc(S(=O)(=O)NC(C)(C)C)c1 (centres unmarked) [JA-089, 2-(4-(4-((4-((3-(N-(tert-Butyl)sulfamoyl)phenyl)amino)-5-methylpyrimidin-2-yl)amino)phenyl)piperazin-1-yl)-N-(14-((2-(2,6-dioxopiperidin-3-yl)-1,3-dioxoisoindolin-4-yl)amino)-3,6,9,12-tetraoxatetradecyl)acetamide]
